The text below walks through data of US8999942B2, “Polyol modified aminoglycoside-lipid conjugates” (University of Manitoba, priority 2010, dated 2015).

The test system of one experiment is S. aureus ATCC 29213. The experiment in a line: MIC, broth macrodilution (CLSI), S. aureus ATCC 29213. The class given is cell-based, Staphylococcus aureus. How it is done:
(§1) All compounds were tested against American Type Culture Collection (ATCC) reference strains as well as clinical isolates from the Canadian Intensive Care Unit (CAN-ICU) study (Zhanel, et al., 2008). […] Antibacterial activity against Gram-positive and Gram-negative microorganisms was performed via broth macrodilution tests using CLSI methodology (Clinical and Laboratory Standards Institute, 2006). The minimum inhibitory concentration (MIC) in μg/mL of the aminoglycoside-derived amphiphilic polycarbamates and polyethers were determined using established methods (Clinical and Laboratory Standards Institute, 2006) and are shown in Tables 1 and 2, respectively.

Experiment [1] has as its system methicillin-resistant Staphylococcus aureus (MRSA) ATCC 33592. The experiment in a line: MIC, broth macrodilution (CLSI), MRSA ATCC 33592. The class given is cell-based. The conditions noted are these: MRSA, methicillin-resistant S. aureus ATCC 33592. How it is done: as §1
Experiment [2] deals with S. epidermidis ATCC 14990. Put plainly: MIC, broth macrodilution (CLSI), S. epidermidis. The class given is cell-based, Staphylococcus epidermidis. Conditions: for Minimal Inhibitory Concentration (MIC): footnote ATCC 1490. How it is done:
as §1

In experiment [3] the test system is methicillin-resistant Staphylococcus epidermidis (MRSE) CAN-ICU 61589. Put plainly: MIC, broth macrodilution (CLSI), MRSE. The class given is cell-based. The conditions noted are these: methicillin-resistant S. epidermidis, footnote (ATCC 14990). How it is done:
as §1

The subject of experiment [4] is Streptococcus pneumoniae ATCC 49619. Put plainly: MIC, broth macrodilution (CLSI), S. pneumoniae ATCC 49619. The class given is cell-based. On the procedure: as §1
The next experiment deals with E. coli ATCC 25922. The experiment in a line: MIC, broth macrodilution (CLSI), E. coli ATCC 25922. The class given is cell-based. How it is done:
as §1

Experiment [5] deals with E. coli (Gentamicin-resistant) CAN-ICU 61714. Put plainly: MIC, broth macrodilution (CLSI), gentamicin-resistant E. coli. The class given is cell-based. The conditions noted are these: for Minimal Inhibitory Concentration (MIC): footnote ATCC 6174 (gentamicin resistant). On the procedure:
as §1

Experiment [6] relates to E. coli (Amikacin MIC 32) CAN-ICU 63074. The experiment in a line: MIC, broth macrodilution (CLSI), E. coli CAN-ICU 63074. The class given is cell-based. On the procedure:
as §1

The subject of experiment [7] is Pseudomonas aeruginosa ATCC 27853. The experiment in a line: MIC, broth macrodilution (CLSI), P. aeruginosa ATCC 27853. The class given is cell-based. How it is done: as §1
For experiment [8], the system named is P. aeruginosa (Gent-R) CAN-ICU 62308. The experiment in a line: MIC, broth macrodilution (CLSI), P. aeruginosa CAN-ICU 62308. The class given is cell-based, Pseudomonas aeruginosa. How it is done: as §1
In experiment [9] the test system is Stenotrophomonas maltophilia (CAN-ICU 62585). The experiment in a line: MIC, broth macrodilution (CLSI), S. maltophilia. The class given is cell-based. Conditions: S. maltophilia, footnote CAN-ICU 62584. How it is done: as §1
The test system of experiment [10] is Acinetobacter baumanni (CAN-ICU 63169). The experiment in a line: MIC, broth macrodilution (CLSI), A. baumannii. Conditions: A. baumannii CAN-ICU 63169. The class given is cell-based. On the procedure: as §1
The next experiment concerns S. pneumoniae ATCC 13883. The experiment in a line: MIC, broth macrodilution (CLSI), S. pneumoniae ATCC 13883. The class given is cell-based. On the procedure:
as §1

In brackets after ≈: the same amount, converted by molar mass.

Regarding `NCC[C@H](O)C(=O)N[C@@H]1C[C@H](N)[C@@H](O[C@H]2O[C@H](CN)[C@@H](O)[C@H](O)[C@H]2O)[C@H](O)[C@H]1O[C@H]1O[C@H](CO)[C@@H](O)[C@H](N)[C@H]1O` [Amikacin, reference compound], the MIC with S. aureus ATCC 29213 (Staphylococcus aureus, ATCC29213, read-out: Minimal Inhibitory Concentration (MIC)) was 4 µg/mL (≈ 6.83 µM); in [1] (Staphylococcus aureus, read-out: Minimal Inhibitory Concentration (MIC)) it was 8 µg/mL (≈ 13.7 µM); in experiment [2] (Staphylococcus epidermidis, ATCC 1490 / ATCC 14990, footnote ATCC 1490, read-out: Minimal Inhibitory Concentration (MIC)), 1 µg/mL (≈ 1.71 µM); in experiment [3] (Staphylococcus epidermidis, ATCC 14990 / MRSE, read-out: Minimal Inhibitory Concentration (MIC)), 2 µg/mL (≈ 3.42 µM); in [4] (Streptococcus pneumoniae, ATCC49619, read-out: Minimal Inhibitory Concentration (MIC)), 8 µg/mL (≈ 13.7 µM); in the experiment on E. coli ATCC 25922 (Escherichia coli, ATCC25922, read-out: Minimal Inhibitory Concentration (MIC)) it was 4 µg/mL (≈ 6.83 µM). Moreover, the MIC in experiment [5] (Escherichia coli, ATCC6174, footnote ATCC 6174 (gentamicin resistant), read-out: Minimal Inhibitory Concentration (MIC)) is 2 µg/mL (≈ 3.42 µM); in experiment [6] (Escherichia coli, read-out: Minimal Inhibitory Concentration (MIC)), 32 µg/mL (≈ 54.6 µM); in [7] (Pseudomonas aeruginosa, ATCC27853, read-out: Minimal Inhibitory Concentration (MIC)) it was 4 µg/mL (≈ 6.83 µM); in experiment [8] (Pseudomonas aeruginosa, read-out: Minimal Inhibitory Concentration (MIC)), 128 µg/mL (≈ 219 µM); in experiment [9] (Stenotrophomonas maltophilia, read-out: Minimal Inhibitory Concentration (MIC)) it was > 512 µg/mL; in experiment [10] (read-out: Minimal Inhibitory Concentration (MIC)), 128 µg/mL (≈ 219 µM). Besides, in the experiment on S. pneumoniae ATCC 13883 (Streptococcus pneumoniae, ATCC13883, read-out: Minimal Inhibitory Concentration (MIC)), the MIC is 0.5 µg/mL (≈ 0.854 µM).

With `NCC1OC(OC2C(N)CC(N)C(OC(=O)Nc3ccc(Cl)cc3)C2OC2OC(COC(=O)Nc3ccc(Cl)cc3)C(OC3OC(CN)C(OC(=O)Nc4ccc(Cl)cc4)C(OC(=O)Nc4ccc(Cl)cc4)C3N)C2OC(=O)Nc2ccc(Cl)cc2)C(N)C(OC(=O)Nc2ccc(Cl)cc2)C1OC(=O)Nc1ccc(Cl)cc1.O=C(O)C(F)(F)F.O=C(O)C(F)(F)F.O=C(O)C(F)(F)F.O=C(O)C(F)(F)F.O=C(O)C(F)(F)F.O=C(O)C(F)(F)F` (stereo not drawn) [Compound 2], the “Minimal Inhibitory Concentration (MIC)” value with S. aureus ATCC 29213 was 64 µg/mL; in experiment [1] it was 64 µg/mL; in [2], 16 µg/mL; in experiment [3] it was 32 µg/mL; in experiment [4] it was 128 µg/mL; in the experiment on E. coli ATCC 25922, >256 µg/mL. Also, the “Minimal Inhibitory Concentration (MIC)” value was >256 µg/mL in experiment [5]; 256 µg/mL in experiment [6]; >256 µg/mL in experiment [7]; 256 µg/mL in experiment [8]; 128 µg/mL in experiment [9]; >256 µg/mL in [10]. For the same compound, the “Minimal Inhibitory Concentration (MIC)” value with S. pneumoniae ATCC 13883 amounted to 256 µg/mL.

Consider `CCCCCCNC(=O)OCC1OC(OC2C(OC(=O)NCCCCCC)C(N)CC(N)C2OC2OC(CN)C(OC(=O)NCCCCCC)C(OC(=O)NCCCCCC)C2N)C(OC(=O)NCCCCCC)C1OC1OC(CN)C(OC(=O)NCCCCCC)C(OC(=O)NCCCCCC)C1N.O=C(O)C(F)(F)F.O=C(O)C(F)(F)F.O=C(O)C(F)(F)F.O=C(O)C(F)(F)F.O=C(O)C(F)(F)F.O=C(O)C(F)(F)F` (stereo not drawn) [Compound 3], for which the “Minimal Inhibitory Concentration (MIC)” value is 2 µg/mL with S. aureus ATCC 29213; 256 µg/mL in experiment [1]; 1 µg/mL in experiment [2]; 2 µg/mL in experiment [3]; 8 µg/mL in experiment [4]; 8 µg/mL in the experiment with E. coli ATCC 25922. For the same compound, the “Minimal Inhibitory Concentration (MIC)” value is 8 µg/mL in experiment [5]; 32 µg/mL in [6]; >256 µg/mL in experiment [7]; 256 µg/mL in experiment [8]; >256 µg/mL in experiment [9]; >256 µg/mL in experiment [10]. Moreover, in the experiment on S. pneumoniae ATCC 13883, the “Minimal Inhibitory Concentration (MIC)” value is 4 µg/mL.

On to `CN(C)c1ccc(NC(=O)OCC2OC(OC3C(OC(=O)Nc4ccc(N(C)C)cc4)C(N)CC(N)C3OC3OC(CN)C(OC(=O)Nc4ccc(N(C)C)cc4)C(OC(=O)Nc4ccc(N(C)C)cc4)C3N)C(OC(=O)Nc3ccc(N(C)C)cc3)C2OC2OC(CN)C(OC(=O)Nc3ccc(N(C)C)cc3)C(OC(=O)Nc3ccc(N(C)C)cc3)C2N)cc1.O=C(O)C(F)(F)F.O=C(O)C(F)(F)F.O=C(O)C(F)(F)F.O=C(O)C(F)(F)F.O=C(O)C(F)(F)F.O=C(O)C(F)(F)F.O=C(O)C(F)(F)F.O=C(O)C(F)(F)F.O=C(O)C(F)(F)F.O=C(O)C(F)(F)F.O=C(O)C(F)(F)F.O=C(O)C(F)(F)F.O=C(O)C(F)(F)F` (stereo not drawn) [Compound 4], for which the “Minimal Inhibitory Concentration (MIC)” value in the experiment on S. aureus ATCC 29213 came out at 16 µg/mL; in experiment [1], 16 µg/mL; in experiment [2] it was 8 µg/mL; in experiment [3], 8 µg/mL; in [4], 32 µg/mL; with E. coli ATCC 25922, 128 µg/mL. For the same compound, the “Minimal Inhibitory Concentration (MIC)” value is 128 µg/mL in [5]; 64 µg/mL in experiment [6]; 128 µg/mL in experiment [7]; 128 µg/mL in experiment [8]; 256 µg/mL in experiment [9]; >256 µg/mL in experiment [10]. Also, the “Minimal Inhibitory Concentration (MIC)” value in the experiment on S. pneumoniae ATCC 13883 was >256 µg/mL.

With `NCC1OC(OC2C(N)CC(N)C(OC3OC(COC(=O)Nc4ccccc4)C(OC(=O)Nc4ccccc4)C(N)C3OC(=O)Nc3ccccc3)C2OC(=O)Nc2ccccc2)C(OC(=O)Nc2ccccc2)C(OC(=O)Nc2ccccc2)C1OC(=O)Nc1ccccc1.O=C(O)C(F)(F)F.O=C(O)C(F)(F)F.O=C(O)C(F)(F)F.O=C(O)C(F)(F)F` (stereo not drawn) [Compound 5], the “Minimal Inhibitory Concentration (MIC)” value with S. aureus ATCC 29213 was 32 µg/mL; in [1], 32 µg/mL; in experiment [2] it was 4 µg/mL; in experiment [3], 8 µg/mL; in experiment [4], 64 µg/mL; in the experiment with E. coli ATCC 25922 it was >256 µg/mL. Moreover, the “Minimal Inhibitory Concentration (MIC)” value in experiment [5], in experiment [6], in experiment [7], in experiment [8], in [9] and in experiment [10] was >256 µg/mL throughout. For the same compound, the “Minimal Inhibitory Concentration (MIC)” value in the experiment with S. pneumoniae ATCC 13883 was >256 µg/mL.

For `CCCCCCNC(=O)OCC1OC(OC2C(N)CC(N)C(OC3OC(CN)C(OC(=O)NCCCCCC)C(OC(=O)NCCCCCC)C3OC(=O)NCCCCCC)C2OC(=O)NCCCCCC)C(OC(=O)NCCCCCC)C(N)C1OC(=O)NCCCCCC.O=C(O)C(F)(F)F.O=C(O)C(F)(F)F.O=C(O)C(F)(F)F.O=C(O)C(F)(F)F` (stereo not drawn) [Compound 6], the “Minimal Inhibitory Concentration (MIC)” value in the experiment with S. aureus ATCC 29213 was 32 µg/mL; in experiment [1], 64 µg/mL; in experiment [2] it was 16 µg/mL; in [3] it was 32 µg/mL; in experiment [4], 128 µg/mL; in the experiment with E. coli ATCC 25922, 128 µg/mL. Further, the “Minimal Inhibitory Concentration (MIC)” value was 64 µg/mL in experiment [5]; 64 µg/mL in experiment [6]; 128 µg/mL in [7]; 32 µg/mL in experiment [8]; >256 µg/mL in experiment [9]; >256 µg/mL in experiment [10]. The “Minimal Inhibitory Concentration (MIC)” value in the experiment on S. pneumoniae ATCC 13883 was >256 µg/mL.

On to `NC[C@@H]1O[C@H](O[C@H]2[C@@H](O)[C@H](O[C@@H]3[C@@H](O)[C@H](N)C[C@H](N)[C@H]3O[C@H]3O[C@H](CN)[C@@H](O)[C@H](O)[C@H]3N)O[C@@H]2CO)[C@H](N)[C@@H](O)[C@@H]1O` [Neomycin B, reference compound], for which the “Minimal Inhibitory Concentration (MIC)” value in the experiment on S. aureus ATCC 29213 turned out to be 1 µg/mL; in [1] it was 256 µg/mL; in experiment [2], 0.25 µg/mL; in experiment [3], 0.5 µg/mL; in experiment [4], 32 µg/mL; with E. coli ATCC 25922, 4 µg/mL. The “Minimal Inhibitory Concentration (MIC)” value is 8 µg/mL in experiment [5]; 512 µg/mL in experiment [7]; 512 µg/mL in experiment [8]; >512 µg/mL in [9]; 64 µg/mL in experiment [10]; 1 µg/mL in the experiment with S. pneumoniae ATCC 13883.
